# Assay results reported in PMC6346587, “Glucose 6-phosphate dehydrogenase 6-phosphogluconolactonase: characterization of the Plasmodium vivax enzyme and inhibitor studies” (Malaria Journal, 2019).
# Numbering of substitutions follows the chain as printed. Names may count otherwise. Like-named read-outs stand apart in the source and are kept apart here.
# T1: PfGluPho (Plasmodium falciparum, UniProt Q8IKU0)
# T1 construct: made in house
# T1 sequence (Q8IKU0 1-910): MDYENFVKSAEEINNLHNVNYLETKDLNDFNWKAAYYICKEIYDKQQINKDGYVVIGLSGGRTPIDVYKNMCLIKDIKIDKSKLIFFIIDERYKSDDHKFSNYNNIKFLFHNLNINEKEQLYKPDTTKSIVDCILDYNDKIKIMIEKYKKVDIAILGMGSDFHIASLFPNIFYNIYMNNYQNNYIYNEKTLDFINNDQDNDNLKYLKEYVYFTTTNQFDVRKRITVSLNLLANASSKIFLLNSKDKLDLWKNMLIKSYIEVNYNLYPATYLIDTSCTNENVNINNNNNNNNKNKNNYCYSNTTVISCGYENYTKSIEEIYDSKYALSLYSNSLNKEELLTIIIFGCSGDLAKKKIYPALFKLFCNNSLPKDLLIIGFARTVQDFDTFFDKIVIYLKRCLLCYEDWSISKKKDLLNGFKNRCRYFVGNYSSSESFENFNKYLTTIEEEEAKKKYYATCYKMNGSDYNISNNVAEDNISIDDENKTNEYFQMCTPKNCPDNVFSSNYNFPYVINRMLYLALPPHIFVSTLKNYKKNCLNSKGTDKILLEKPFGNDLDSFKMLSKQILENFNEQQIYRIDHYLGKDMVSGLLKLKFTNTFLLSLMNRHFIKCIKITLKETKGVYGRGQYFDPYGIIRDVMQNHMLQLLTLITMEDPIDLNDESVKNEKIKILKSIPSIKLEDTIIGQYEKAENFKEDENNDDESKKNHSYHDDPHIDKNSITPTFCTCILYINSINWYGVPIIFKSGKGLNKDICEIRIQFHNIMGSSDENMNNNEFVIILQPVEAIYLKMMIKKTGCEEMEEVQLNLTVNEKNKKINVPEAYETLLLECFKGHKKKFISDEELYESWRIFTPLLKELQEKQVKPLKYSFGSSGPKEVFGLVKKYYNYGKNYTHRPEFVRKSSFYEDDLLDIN
# B1: PfGluPho S315Y (enzyme)
# chain: T1 sequence (Q8IKU0 1-910) with S315Y
# notes: source: E. coli, purified (size exclusion chromatography under reducing conditions); produced as described previously [14]
# B2: PfGluPho L395F (enzyme)
# chain: T1 sequence (Q8IKU0 1-910) with L395F
# notes: as for B1
# B3: PfGluPho F507L (enzyme)
# chain: T1 sequence (Q8IKU0 1-910) with F507L
# notes: as for B1
# B4: PfGluPho S899E (phosphomimetic mutant) (enzyme)
# chain: T1 sequence (Q8IKU0 1-910) with S899E
# notes: as for B1
# B5: PfGluPho S900E (phosphomimetic mutant) (enzyme)
# chain: T1 sequence (Q8IKU0 1-910) with S900E
# notes: as for B1
# How the values were obtained:
# PvG6PD = PvG6PD (Plasmodium vivax, UniProt A5K3M1); assay: PvG6PD enzyme inhibition assay (NADPH formation, absorbance 340 nm / fluorescence); format: biochemical; settings: for IC50 on PvG6PD: ellagic acid and derivatives
# Procedure: The G6PD activity of PfGluPho variants was measured spectrophotometrically as described for the wt enzyme. Kinetic characterization of PvG6PD was performed using the same assay system at an Evolution 300 spectrophotometer (Thermo Scientific, Dreieich, Germany). In brief, the initial reduction of NADP^+ to NADPH by PvG6PD was monitored by measuring the absorbance at 340 nm. The 500 µL reaction mixture contained 200 µM NADP^+ and varying concentrations of PvG6PD in an assay buffer of 100 mM Tris–HCl, pH 8.0, 10 mM MgCl2, and 0.5 mM EDTA at 25 °C. The reaction was started by adding 800 µM G6P. The KM for NADP^+ was determined by titrating NADP^+ from 2 to 400 µM at 800 µM G6P; the KM for G6P was measured accordingly by titrating G6P from 2 to 1200 µM at 200 µM NADP^+. KM values were calculated using GraphPad Prism. Since the KM for G6P was considerably higher than the value measured for PfGluPho [14], a concentration of 800 µM G6P was defined as substrate saturation for PvG6PD.
# (§1) To identify potential inhibitors of PvG6PD, compounds with already known effects on PfGluPho (ellagic acid and derivatives, ML304) were tested. Additionally, several compound libraries of the Helmholtz Center for Infection Research, Brunswick, were screened against PfGluPho using the high-throughput-compatible assay systems described in Preuss et al.. […] Based on structure-activity relationship studies, a set of new potential G6PD inhibitors (Fig. 8) was then synthesized and assessed. First, the IC50 values of the compounds were determined, followed by mechanistic characterization of the mode of action. To test for selectivity of the compounds, the IC50 values of the compounds on PvG6PD, PfGluPho, and hG6PD were determined in parallel.
# (§2) All measurements were performed in 96-well plates, half area (Greiner Bio-One, Frickenhausen, Germany) using a Tecan Infinite M200 plate reader (Maennedorf, Switzerland). The compounds were dissolved in 100% DMSO and afterwards diluted in assay buffer to the required concentrations. Different compound concentrations were added to a mixture of enzyme and NADP^+ in assay buffer. Concentrations of substrates differed depending on the enzyme; an overview is given in the Additional file 4. The reaction was started by adding G6P, and the increase of NADPH was monitored by measuring the absorbance at 340 nm. To increase the sensitivity of the assay, some measurements were reproduced, detecting the fluorescence of NADPH at ex340/em460. […] A negative control containing no compound was defined as 0% inhibition; a positive control lacking the substrate G6P was defined as 100% inhibition. For evaluations using GraphPad Prism and Microsoft Excel, only a linear increase in absorbance/fluorescence was considered. For the mechanistic characterization of the compounds, either NADP^+ or G6P were titrated at different compound concentrations around the IC50, while keeping the second substrate in saturation. The initial slope was plotted as Michaelis–Menten curves and Lineweaver–Burk plots using GraphPad Prism; KM values and Vmax were calculated with GraphPad Prism software.
# [1] = Stability of compounds in enzyme assay buffer; format: physicochemical; settings: 100 mM Tris–HCl pH 8.0 assay buffer, DMSO stock
# hG6PD [2] = biological target: T2, hG6PD (Homo sapiens, UniProt P11413); assay: hG6PD enzyme inhibition assay; format: biochemical; settings: for IC50 on hG6PD relative to plasmodial enzymes (selectivity): compared with PfGluPho and PvG6PD
# T2 construct: made in house
# Procedure: as §1, §2
# PfGluPho [3] = biological target: T1, PfGluPho; assay: PfGluPho G6PD activity inhibition assay; format: biochemical
# Procedure: as §1, §2
# hG6PD [4] = biological target: T2, hG6PD; settings: ML276; read-out: IC50 against hG6PD; cited from earlier work
# PfGluPho [5] = biological target: T1, PfGluPho; settings: ML276; read-out: IC50 against PfGluPho; cited from earlier work
# [6] = biological target: the molecule itself; assay: SEC; size exclusion chromatography of purified PfGluPho mutants under reducing conditions
# [7] = mean ± SD, only one enzyme batch, read-out: IC50 on hG6PD
# [8] = mean ± SD, at least two independent determinations, different enzyme batches, read-out: IC50 on PfGluPho
# T2 sequence (P11413 whole entry): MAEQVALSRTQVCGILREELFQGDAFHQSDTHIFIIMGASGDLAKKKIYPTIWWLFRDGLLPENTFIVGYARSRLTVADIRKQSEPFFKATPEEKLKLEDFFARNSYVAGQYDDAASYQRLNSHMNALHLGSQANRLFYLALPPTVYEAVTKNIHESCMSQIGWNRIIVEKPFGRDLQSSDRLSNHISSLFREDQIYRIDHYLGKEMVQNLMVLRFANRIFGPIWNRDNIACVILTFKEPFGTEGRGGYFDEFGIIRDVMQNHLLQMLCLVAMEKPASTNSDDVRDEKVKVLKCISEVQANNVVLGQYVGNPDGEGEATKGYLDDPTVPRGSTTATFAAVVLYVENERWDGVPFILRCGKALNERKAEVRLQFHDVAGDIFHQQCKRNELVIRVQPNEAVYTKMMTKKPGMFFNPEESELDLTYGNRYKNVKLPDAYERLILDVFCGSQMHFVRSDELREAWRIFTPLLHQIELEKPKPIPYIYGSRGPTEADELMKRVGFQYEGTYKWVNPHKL
# PvG6PD, sequence (A5K3M1 entry or part of it): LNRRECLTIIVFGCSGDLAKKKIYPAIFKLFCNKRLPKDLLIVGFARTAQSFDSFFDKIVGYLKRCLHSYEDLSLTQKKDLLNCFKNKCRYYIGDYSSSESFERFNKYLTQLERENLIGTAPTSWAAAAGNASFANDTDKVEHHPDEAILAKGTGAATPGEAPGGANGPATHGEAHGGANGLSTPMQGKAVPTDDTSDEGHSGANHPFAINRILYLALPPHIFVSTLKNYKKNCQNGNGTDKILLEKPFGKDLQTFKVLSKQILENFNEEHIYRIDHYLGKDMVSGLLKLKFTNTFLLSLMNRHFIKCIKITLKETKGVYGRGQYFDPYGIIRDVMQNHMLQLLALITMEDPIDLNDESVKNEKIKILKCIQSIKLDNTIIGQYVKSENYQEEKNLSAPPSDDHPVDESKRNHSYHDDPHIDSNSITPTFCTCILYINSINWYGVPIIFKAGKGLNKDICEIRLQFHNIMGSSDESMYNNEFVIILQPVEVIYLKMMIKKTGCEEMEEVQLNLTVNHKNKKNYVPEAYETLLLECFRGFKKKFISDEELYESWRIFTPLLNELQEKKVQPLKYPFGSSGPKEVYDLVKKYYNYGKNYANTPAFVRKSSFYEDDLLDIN
molecule,measurement,setting,value
N#CC(Br)c1ncccn1 (stereo not drawn) [2 (vz1731)],IC50,PvG6PD,2.1 ± 0.1 µM
same,Stability in the assay buffer / of dissolved compound,[1],only active when the powder was freshly dissolved
same,IC50,hG6PD [2]; [7],91.7 ± 35 µM
same,IC50,PfGluPho [3]; [8],11.7 ± 9.9 µM
N#CC(Br)c1ncccc1Cl (stereo not drawn) [4 (vz1732)],IC50,PvG6PD,0.2 µM
same,Stability in the assay buffer / of dissolved compound,[1],only active when the powder was freshly dissolved
same,IC50 on hG6PD relative to plasmodial enzymes (selectivity),hG6PD [2],one to two orders of magnitude higher
same,IC50,hG6PD [2]; [7],34.7 ± 21 µM
same,Type of inhibition of PfGluPho against G6P and NADP+,PfGluPho [3]; both substrate G6P and coenzyme NADP+,non-competitively
same,IC50,PfGluPho [3]; [8],0.9 ± 0.2 µM
ClC=C(n1nnc2ccccc21)n1nnc2ccccc21 [8 (vz0882)],IC50,PvG6PD,12.8 ± 7.8 µM
same,Stability in the assay buffer / of dissolved compound,[1],less stable
same,IC50,PfGluPho [3]; [8],18.1 ± 10.4 µM
O=C(O)C(Cl)(C=C(Cl)Cl)[N+](=O)[O-] (stereo not drawn) [10 (vz1204)],IC50,PvG6PD,23.5 ± 3.7 µM
same,IC50,hG6PD [2]; [7],> 100 µM
O=CC(Cl)=C(I)I [13 (vz0288)],IC50,"PvG6PD; mean ± SD, at least two independent determinations, different enzyme batches, read-out: IC50 on PvG6PD",23.3 ± 7.8 µM
same,IC50,hG6PD [2]; [7],> 100 µM
same,IC50,PfGluPho [3]; [8],29.6 ± 23.2 µM
O=C(C(=C1N(Cc2ccc(Cl)nc2)CCN1Cc1ccc(Cl)nc1)[N+](=O)[O-])C(Cl)(Cl)[N+](=O)[O-] [18 (vz0909)],IC50,PvG6PD,9.1 ± 2.8 µM
same,Stability in the assay buffer / of dissolved compound,[1],less stable
same,IC50,hG6PD [2],26 ± 1.8 µM
same,IC50,PfGluPho [3],23.6 ± 14.3 µM
O=C(/C(=C1\N(Cc2ccc(Cl)nc2)CCN1Cc1cnc(Cl)s1)[N+](=O)[O-])C(Cl)(Cl)[N+](=O)[O-] [19 (vz0914)],IC50,PvG6PD,5.6 ± 0.6 µM
same,Stability in the assay buffer / of dissolved compound,[1],less stable
same,IC50,hG6PD [2],29.6 ± 5 µM
same,IC50,PfGluPho [3],8.4 ± 8.4 µM
O=[N+]([O-])C(C(Cl)=C(Cl)Cl)=C1N(c2ccccc2)CCN1c1ccccc1 [20 (vz0005)],IC50,PvG6PD,> 100 µM
same,IC50,hG6PD [2]; [7],> 100 µM
same,IC50,PfGluPho [3]; [8],> 100 µM
C=C[S+]([O-])c1sc(Cl)c(N2CCN(c3c(Cl)sc([S+]([O-])C=C)c3[N+](=O)[O-])CC2)c1[N+](=O)[O-] (stereo not drawn) [21 (vz0527)],IC50,PvG6PD,0.2 ± 0.1 µM
same,Stability in the assay buffer / of dissolved compound,[1],only active when the powder was freshly dissolved
same,IC50,hG6PD [2],8.3 ± 2.7 µM
same,IC50 on hG6PD relative to plasmodial enzymes (selectivity),hG6PD [2],one to two orders of magnitude higher
same,IC50,PfGluPho [3],1.7 ± 0.3 µM
"O=c1oc2c(O)c(O)c(O)c3c(=O)oc4c(O)c(O)c(O)c1c4c23 [CEA, coruleoellagic acid]",IC50,PvG6PD,0.0444 ± 0.0019 µM
same,IC50 on PvG6PD,PvG6PD,lower nanomolar range
"O=c1oc2c(O)c(O)c(O)c3c(=O)oc4c(O)c(O)cc1c4c23 [FEA, flavellagic acid]",IC50,PvG6PD,0.0372 ± 0.0058 µM
same,IC50 on PvG6PD,PvG6PD,lower nanomolar range
"CCN1CCC[C@@H]1CNC(=O)c1ccc2c(c1)NC(=O)/C(=C/c1ccccc1F)S2 [ML276, (R, Z)-N-((1-ethylpyrrolidin-2-yl)methyl)-2-(2-fluorobenzylidene)-3-oxo-3,4-dihydro-2H-benzo[b][1,4]thiazine-6-carboxamide]",IC50,hG6PD [4],> 80 µM
same,IC50,PfGluPho [5],0.89 µM
B1,stoichiometry N,[6],4
B2,stoichiometry N,[6],4
B3,stoichiometry N,[6],4
B4,stoichiometry N,[6],4
B5,stoichiometry N,[6],4
